Results on 7 compounds are retold here after patent publication US8822519B2, “Compound with agitation effect on peroxisome proliferator-activated receptor process for its preparation and use thereof” (Zhejiang Hisun Pharmaceutical Co., Ltd., priority 2008, dated 2014).

SMILES strings stand for the structures.

Data set [1] addresses T1, PPARδ (Homo sapiens, UniProt Q03181).
T1 construct: expressed in transfected cells; host or cells: HepG2 (human hepatocarcinoma, ATCC)
T1 sequence (Q03181 1-441): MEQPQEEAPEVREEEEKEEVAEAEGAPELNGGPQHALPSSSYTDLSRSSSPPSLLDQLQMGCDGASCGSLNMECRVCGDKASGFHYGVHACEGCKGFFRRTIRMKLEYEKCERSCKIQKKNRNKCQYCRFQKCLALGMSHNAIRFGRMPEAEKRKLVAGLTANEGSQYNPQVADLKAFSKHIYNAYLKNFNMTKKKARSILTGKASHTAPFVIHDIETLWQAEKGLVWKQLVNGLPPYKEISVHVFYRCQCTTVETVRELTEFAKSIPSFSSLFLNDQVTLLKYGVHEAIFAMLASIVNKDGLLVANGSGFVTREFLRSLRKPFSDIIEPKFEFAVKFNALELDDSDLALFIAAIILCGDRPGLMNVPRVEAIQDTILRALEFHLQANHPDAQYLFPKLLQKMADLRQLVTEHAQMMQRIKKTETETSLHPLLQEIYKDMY
T1 sequence (P19793 1-462 partner): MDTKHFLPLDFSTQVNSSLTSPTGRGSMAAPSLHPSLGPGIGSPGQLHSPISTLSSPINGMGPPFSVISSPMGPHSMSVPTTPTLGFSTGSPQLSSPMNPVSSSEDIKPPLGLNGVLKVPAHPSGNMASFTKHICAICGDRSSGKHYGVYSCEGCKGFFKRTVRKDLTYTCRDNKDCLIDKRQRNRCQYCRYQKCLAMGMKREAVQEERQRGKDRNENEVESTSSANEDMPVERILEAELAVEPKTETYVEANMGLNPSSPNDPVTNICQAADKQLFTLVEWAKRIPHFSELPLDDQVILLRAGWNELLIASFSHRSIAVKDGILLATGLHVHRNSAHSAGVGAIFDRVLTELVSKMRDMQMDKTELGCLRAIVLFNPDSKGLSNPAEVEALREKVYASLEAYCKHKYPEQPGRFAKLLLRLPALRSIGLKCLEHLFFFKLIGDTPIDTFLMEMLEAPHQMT
The experiment in a line: In vitro screening of nuclear receptor agonist: luciferase reporter gene assay in HepG2 cells. In kind it is cell-based. To be noted: RXR/PPARδ luciferase reporter gene, 24 h treatment. From the text:
Using a reporter gene protocol, the screening model for screening a nuclear receptor agonist in a living cell is designed on a basis of the principal that an activated nuclear receptor can activate transcription of its downstream gene. A reporter gene plasmid is constructed, in which the DNA binding sequence for the nuclear receptor (NRE) is inserted upstream of the luciferase gene, so that the expression of the luciferase gene is placed under the control of the nuclear receptor. Then, the reporter gene plasmid and the nuclear receptor are simultaneously transferred into a cell, and the nuclear receptor is activated when the nuclear receptor agonist is present in the cell culture medium. Then the activated receptor is able to induce the expression of the luciferase gene, while the amount of the luciferase can be determined through its luminous substrate. In this way, the intensity of activation by the compound on the nuclear receptor could be known by observing the luminescence intensity.
The specific operation is described as follows:
The experiment reagents: the compounds to be tested (20 mM, in DMSO, stored at −80° C.).
The hepatocarcinoma cell HepG2 (from ATCC, American Type Culture Collection) was cultured in DMEM medium supplemented with 10% heat-inactivated fetal bovine serum (FBS, Invitogen, Grand Island, N.Y., USA) in a T-75 culture bottle (Greiner, Germany) in a incubator at 37° C., the relative humidity of 100%, and 5% CO2. When the cell culture in the culture bottle reached 80-90% confluency, it was digested with 0.25% Trypsin (with EDTA) for 3 min and inoculated into a 96-well cell culture plate at an inoculating density of 2000 cells/100 μl/well.
In the next day, when the cells in the 96-well culture plate grew up to 50-80% confluency, cell transfection was performed. The cell co-transfection system comprised the FuGene6 transfection agent (Roche Molecular Biochemicals, Indianapolis, Ind., U.S.A.) and 60 ng DNA (long of hRXR, 10 ng of pCMV βGal, 10 ng of the nuclear receptor expression plasmid RXR/PPARδ, 30 ng of GFP fluorescence reporter gene plasmid, respectively).
The cell culture medium was discarded immediately at 24 hours post-transfection and replaced by 200 μl of a fresh DMEM medium containing the medicament to be tested (with 10% FBS treated by activated carbon).
24 h after treatment with the medicament, the cells were lysed with a lysis solution (Cell Culture Lysis buffer, Promega) and centrifuged, and the supernatant was collected. The supernatant was treated with a fluorescence detection kit (Promega) and counted by a fluorescence meter (Ascent Fluoroskan FL reader, Thermo Labsystems, Finland), and the relative intensity of the luciferase was determined. For assaying the β-galactosidase activity used in the experiment as the inner reference (the inner reference calibrating for the transfection efficiency), 50 μl of the supernatant was transferred into a fresh microplate and treated with the Promega kit and read at a wavelength of 405 nm from a microplate reader (Bio-tech Instruments Inc., Winooski, Vt., USA) (Sauerberg, P.; Olsen, G. S.; Jeppesen, L.; Mogensen, J. P. et al., J. Med. Chem., 2007, 50, 1495-1503).
The median effective concentration (EC50) of a sample is a concentration at which the sample has 50% pharmacological effect. This value is one of the important parameters for evaluating pharmacological effects of a compound. In the present screening process, the EC50 of a sample was calculated according to the activation of the receptor by the sample at six different concentrations.

The nature of data set [2]: Pharmacokinetics: plasma concentration-time curve. In kind it is in vivo. The settings on record: both sexes, rat, plasma, oral, SD rats, gastric lavage, 50, 10 and 2 mg/kg. The protocol: The dosing volume was 10 ml/kg, and blood samples of 0.4-0.5 ml were taken from the vena orbitalis posterior of the waken animals at different time points post-gastric lavage and centrifuged at 5000 rpm for 10 min. 200 μL of plasma sample was precisely measured, then supplemented with 200 μL acetonitrile, vortexed to evenness, left stand for 5 min, and centrifuged (14000 rpm, 5 min). The supernatant was collected and then centrifuged again (14000 rpm, 5 min). The resulting supernatant was gathered and subjected to HPLC injection. Time points for blood sampling were respectively: 0, 0.5, 1, 2, 4, 6, 8, 10, 12, 24, 36, 48 and 72 h, and the peak area for each time point was the average of those obtained from 6 rats at the same time point. Plasma concentrations were calculated and the medicament concentration-time curve was plotted.

Data set [3] in a line: Tissue distribution. In kind it is in vivo, SD rats. The protocol:
18 of SD rats were fasting for 16 h with free access for water, assigned them into 3 groups with 6 animals/group with a female-to-male ratio of 1:1; they were dosed with HS060098 (10 mg/kg), then the animals were sacrificed at 1, 10, and 24 h after dosing, and the heart, liver, spleen, lung, kidney in each animal were removed rapidly. The tainted blood on the surface of the organ was washed off immediately with physiological saline. The tissue from the organ was dissected apart, washed thoroughly, blotted off, weighed, supplemented with physiological saline at 400 mg/ml, homogenized in an ice bath for 1 min, and centrifuged at 3750 rpm for 20 min. 400 μl of the supernatant was pipetted precisely, followed by addition of 40 μl of an inner standard (HS060001 used as the inner standard with a molar concentration of 5 mmol/L), diluted with 3 ml of purified water, vortexed to homogeneity, and loaded onto a column (SPE C18 column was firstly washed with 3 ml of purified water, and sequentially with 3 ml of 10% methanol for activation). The column was rinsed with 3 ml of purified water at 1 ml/min, and then eluted with 3 ml of a elutant (methanol: purified water=9:1). The eluate was collected and blow-dried under a nitrogen flow at 45° C. The residue was dissolved in 400 μl of acetonitrile and then a HPLC insert was placed and followed by injection of the sample.

The conditions of data set [4]: clinical research, Oliver et al. 2001; cited from earlier work.
Setting [5] is: distribution in organs, SD rats, 10 mg/kg.

In data set [1], `Cc1cc(OC(c2ccccc2)c2nn(-c3ccc(C(F)(F)F)cc3)c(=O)n2C)ccc1OCC(=O)O` (stereo not drawn) [Compound A-1, 2-(2-methyl-4-(1-(3-(4-methyl-5-oxo-1-(4-trifluoromethyl-phenyl)-4,5-dihydrogen-1H-1,2,4-triazolyl))-benzyloxy)-phenoxy)-acetic acid] had an EC50 of 468 nM. Also, the half-life in data set [2] was 26 to 28 h. Further, in data set [2] (read-out: bioavailability), the bioavailability stood at 15%. In data set [3] (setting [5]), this compound gave a Heart of 6%, a Kidney of 9%, a Liver of 65% and a Lung of 11%. In addition, in data set [3] (setting [5]), the Spleen is listed as 9%. The tissue distribution entry in data set [3] (in words) is listed as “distribute mainly in liver”.
With `Cc1cc(SC(C)(C)C(=O)O)ccc1OC(c1ccccc1)c1nn(-c2ccc(C(F)(F)F)cc2)c(=O)n1C` (stereo not drawn) [Compound A-15, 2,2-dimethyl-2-(3-methyl-4-(1-(3-(4-methyl-5-oxo-1-(4-trifluoromethyl-phenyl)-4,5-dihydrogen-1H-1,2,4-triazolyl))-benzyloxy)-phenylthio)-acetic acid], the response in data set [1] was half-maximal at 20 nM (EC50).
Consider `Cc1cc(SC(c2ccccc2)c2nn(-c3ccc(C(F)(F)F)cc3)c(=O)n2C)ccc1OC(C)(C)C(=O)O` (stereo not drawn) [Compound A-16, 2,2-dimethyl-2-(2-methyl-4-(1-(3-(4-methyl-5-oxo-1-(4-trifluoromethyl-phenyl)-4,5-dihydrogen-1H-1,2,4-triazolyl))-benzylthio)-phenoxy)-acetic acid], for which the EC50 in data set [1] turned out to be 1 nM.
Take `CCCCn1c(C(Oc2ccc(SCC(=O)O)cc2C)c2ccccc2)nn(-c2ccc(C(F)(F)F)cc2)c1=O` (stereo not drawn) [Compound A-17, 2-(3-methyl-4-(1-(3-(4-n-butyl-5-oxo-1-(4-trifluoromethyl-phenyl)-4,5-dihydrogen-1H-1,2,4-triazolyl))-benzyloxy)-phenylthio)-acetic acid]: the EC50 in data set [1] was less than 1 nM.
The same measure, in the same setting: as for `CCCCn1c(C(Sc2ccc(OC(C)(C)C(=O)O)c(C)c2)c2ccccc2)nn(-c2ccc(C(F)(F)F)cc2)c1=O` (stereo not drawn) [Compound A-18], the figure is less than 1 nM.
On the same count and under the same terms, then `CCCCn1c(C(Sc2cc(C)c(OCC(=O)O)cc2C)c2ccccc2)nn(-c2ccc(C(F)(F)F)cc2)c1=O` (stereo not drawn) [Compound A-19, 2-(2,5-dimethyl-4-(1-(3-(4-n-butyl-5-oxo-1-(4-trifluoromethyl-phenyl)-4,5-dihydrogen-1H-1,2,4-triazolyl))-benzylthio)-phenoxy)-acetic acid], with less than 1 nM.
For the compound `Cc1cc(SCc2sc(-c3ccc(C(F)(F)F)cc3)nc2C)ccc1OCC(=O)O` [GW501516], in data set [4], the “decrease the level of insulin” value is “up to 48%”, the “decrease the level of triglyceride (TG)” value was “up to 56%”, the “increase the level of high density lipoprotein (HDL) cholesterol” value is on record as “up to 80%” and the “lower the level of low density lipoprotein (LDL) cholesterol” value is “up to 29%”.

What is called EC50 is the concentration at which the effect is half-maximal. A lower EC50 goes with a more potent agent. In general, half-life refers to the time needed for the level to fall by half in the phase considered. Low values mean fast loss, high ones slow loss. As a reminder, the bioavailability is dose-corrected exposure relative to a reference, in per cent.
